78 compounds from PMC12040169 (PLOS Biology, 2025) can be followed below.

This data set can be described thus: in vitro. The conditions noted are these: human, hela cells, % viability.

Consider `COc1cccc(-c2cncc(C3CN(Cc4cccc5ncccc45)CCO3)n2)c1` (stereo not drawn) [CBK285973], for which the viability at 28.5 h, 10 µM is 102%. The same measure, in the same setting: as for `Oc1ccc2nc(N[C@H]3CC4CCC3C4)sc2c1Cl` (stereo partly drawn) [CBK024348G], the figure is 62.1%; as for `Cc1cc(C(F)(F)F)nc2sc(C(=O)c3ccc4c(c3)OCO4)c(N)c12` [CBK074388], 94.5%; as for `CC(C)c1nccc(CN2CCC(CCN3CCCC3=O)CC2)n1` [CBK306887], 116%.

Regarding `CCCC(=O)Nc1nnc(-c2ccc(Cl)cc2)o1` [CBK287594], the viability at 28.5 h, 10 µM was found to be 91.8%. On the same count and under the same terms, next, `COc1ccc(C(C)C)cc1S(=O)(=O)NCCc1c(C)[nH]c2c(Cl)cccc12` [CBK266983]: 94.5%. On to `CC(=O)N(C)c1nc(-c2cccc(N(C)C)c2)ccc1C(=O)NCc1cccnc1` [CBK076639], for which the viability at 28.5 h, 10 µM is 101%. As to `CCOC(=O)CSC1=NNC(C)(c2c(O)c3ccccc3n(CC)c2=O)N1` (stereo not drawn) [CBK009370], the viability at 28.5 h, 10 µM amounted to 92.5%.

In the case of `NC(=O)COc1ccc(/C=C/c2cc(C(F)(F)F)[nH]c(=O)n2)cc1` [CBK269475], the viability at 28.5 h, 10 µM was found to be 90.6%. The same measure, in the same setting: next, `CCC(c1ccc2c(c1)CCO2)N1CCN(Cc2nc(C)no2)CC1` (stereo not drawn) [CBK304237]: 90.3%.

With `FC(F)(F)c1cccnc1OCc1cccnc1` [CBK115780], the viability at 28.5 h, 10 µM turned out to be 101%. Still for that read-out and setting: next, `COC(=O)c1ccc(-c2ccc(Cl)c(Cl)c2)nc1` [CBK149231]: 101%. Same read-out and setting: next, `NS(=O)(=O)c1ccc(NC(=S)NNC(=S)Nc2ccc(F)cc2F)cc1` [CBK267102]: 93.3%; `CCc1nc2ccc(C(=O)N(C)CCN(C)C)cn2c1N(CC)C(=O)NCCc1ccccc1` [CBK147036]: 96.4%.

For the compound `O=C(CSc1nnnn1C1CC2CCC1C2)Nc1ccnc2ccccc12` (stereo not drawn) [CBK267901], the viability at 28.5 h, 10 µM was 89.4%. `CCOC(=O)c1cnn(C)c1-c1ccc(F)cc1OC` [CBK149233]: the viability at 28.5 h, 10 µM worked out at 92.8%.

On to `COc1cccc(CN2CCN(C(=O)N3CCCCC3)[C@@H](C)C2)c1` [CBK284266], for which the viability at 28.5 h, 10 µM was determined as 95%.

As for `O=C(O)c1cc(NC(=O)c2ccc(NC(=O)c3ccco3)cc2)cc(C(=O)O)c1` [CBK265149], the viability at 28.5 h, 10 µM was 111%.

As for `O=C(Nc1ccc(Cn2cncn2)cc1)C1CC2C=CC1C21CC1` (stereo not drawn) [CBK281399], the viability at 28.5 h, 10 µM amounted to 88.2%. In the case of `CCOC(=O)C1(c2ccccc2)CCN(C(=O)CCSC)CC1` [CBK132184], the viability at 28.5 h, 10 µM (bulk resorufin, single well) was determined as 113%. With `CN(Cc1nc(-c2ccccc2)no1)C(=O)C1CCOC1` (stereo not drawn) [CBK306755], the viability at 28.5 h, 10 µM stood at 107%.

As for `O=C(CCc1cccc(F)c1)Nc1cnc(-c2ccc(F)cc2)c(-c2ccoc2)n1` [CBK037077], the viability at 28.5 h, 10 µM worked out at 85.3%. On the same count and under the same terms, as for `CC(C)CC1(C(CCN2C(=O)c3ccccc3C2=O)C(=O)NO)CCN(Cc2cccc(F)c2)C1=O` (stereo not drawn) [CBK013032], the figure is 83.8%; as for `CN(CC(=O)NCc1ccco1)C1CCCCC1` [CBK304471], 85.6%; as for `CCn1cc(Cl)c(C(=O)NC2CCN(c3nc(C)cc(=O)[nH]3)CC2)n1` [CBK304614], 88.5%.

Turning to `CC(Oc1ccccc1)c1nnc(SCC(=O)Nc2cc(Cl)c(Cl)cc2Cl)n1C` (stereo not drawn) [CBK266262], the viability at 28.5 h, 10 µM came out at 108%.

Regarding `CC(C)NC(=O)c1ccc(-n2cccn2)c(C#Cc2cccnc2)c1` [CBK284523], the viability at 28.5 h, 10 µM stood at 94.3%.

For the compound `C#CCn1cc(CN2CCc3c(nc(C)[nH]c3=O)C2)c2ccccc21` [CBK282382], the viability at 28.5 h, 10 µM is 102%.

As for `CCOc1ccc(-n2c(SCc3nc(-c4ccccc4C)no3)nnc2-c2ccccc2)cc1` [CBK268910], the viability at 28.5 h, 10 µM was found to be 109%. Same read-out and setting: next, `O=C(c1ccccn1)c1ccccn1` [CBK010601]: 89%. On the same count and under the same terms, next, `CCOc1ccc(-c2cncc(N3CCC(C(=O)O)CC3)n2)cc1` [CBK065870]: 97.2%; `COc1ccc(C2(C(=O)NCCc3c[nH]cn3)CC2)cc1` [CBK149834]: 97.8%; `CCOc1ccsc1C(=O)Nc1c(OC)cc(F)cc1OC1CCNCC1` [CBK050292T]: 94.3%.

On to `COc1ccc(Cl)cc1NC(=O)Nc1ccc(C(=O)N2CCOCC2)cc1` [CBK266958], for which the viability at 28.5 h, 10 µM came to 87.1%. As for `Cc1ccc2[nH]c3c(c2c1)CC(NS(=O)(=O)c1c(N)noc1C)CC3` (stereo not drawn) [CBK306270], the viability at 28.5 h, 10 µM worked out at 86.6%.

As to `CC(=O)c1c(C(=O)O)[nH]c(C(=O)O)c1C` [CBK263934], the viability at 28.5 h, 10 µM was 87.4%. The same measure, in the same setting: as for `COc1ccc(S(=O)(=O)Nc2ccncc2)cc1N(C)S(=O)(=O)c1ccccc1` [CBK267179], the figure is 103%; as for `O=C1CNC(=O)C2(C/C=C/C[C@H]3COCC[C@@H]3N1)CCN(CC(=O)N1CCCCC1)CC2` [CBK292137], 111%; as for `COc1ccccc1C1CCC(NCCCC(=O)c2ccc(F)cc2)CC1` (stereo not drawn) [CBK015965C], 105%. Same read-out and setting: next, `CS(=O)(=O)c1ccc(-c2nc(N)cc3ccccc23)cc1` [CBK085724]: 96.1%. On the same count and under the same terms, next, `Cc1nn(CC(=O)NCc2ccc(C(=O)O)cc2)c(C)c1[N+](=O)[O-]` [CBK268967]: 118%; `Cc1ccccc1NS(=O)(=O)c1ccc(OCC(=O)N2CCN(C)CC2)cc1` [CBK267948]: 88.4%. `O=C(NCC1CCCN1)c1cc2cc(Cl)ccc2[nH]1` (stereo not drawn) [CBK115917C]: the viability at 28.5 h, 10 µM amounted to 104%. On the same count and under the same terms, next, `CC(C)c1cc(C(=O)NCCN2CCc3ccccc32)n(C)n1` [CBK282685]: 86.7%; `COc1cc(-c2cn3ccnc3c(NCC3CCOCC3)n2)cc(OC)c1OC` [CBK037284]: 96.8%; `CCNS(=O)(=O)c1ccc(CCC(=O)Nc2ccc3c(c2)OCO3)cc1` [CBK268367]: 101%. With `OC[C@@H](c1ccccc1)N1CC[C@H]2c3ccc(Br)cc3CC[C@H]21` [CBK017507C], the viability at 28.5 h, 10 µM was 84.4%. For `CCNC(=O)Nc1cc2ccccc2c(-c2ccc(F)cc2OC)n1` [CBK085731], the viability at 28.5 h, 10 µM stood at 62.9%. Same read-out and setting: as for `CN1C(=O)CC2(C1=O)C(=O)N(CC(=O)O)c1ccc(Cl)cc12` (stereo not drawn) [CBK076107], the figure is 98.8%; as for `CCOC(=O)C(NCCc1ccc(OC)c(OC)c1)(NC(=O)c1ccco1)C(F)(F)F` (stereo not drawn) [CBK013715], 123%. The same measure, in the same setting: next, `C[C@@H](Nc1cncc(-c2cccs2)n1)c1ccccc1` [CBK065711]: 108%; `O=C(CS(=O)(=O)c1cc2c(N3CCNCC3)nccc2s1)c1ccc(N2CCCC2)cc1` [CBK042232C]: 81.2%; `Clc1ccc2c(c1)NC(c1ccco1)N1CCN=C21` (stereo not drawn) [CBK284479]: 84.8%. Still for that read-out and setting: next, `COc1cc(/C=N/N=C(/Nc2ccc(C)cc2)c2nc3ccccc3s2)ccc1O` [CBK265029]: 103%; `COc1ccc(-c2cnc(N)c(NC3CCOCC3)n2)c(OC)c1OC` [CBK063844]: 113%; `Cc1c(S(=O)(=O)Nc2cccc(C(=O)OCC3CCCN(C)C3)c2)sc2ccc(Cl)cc12` (stereo not drawn) [CBK167735G]: 109%. As to `COc1ccc(NC(=O)c2cc([N+](=O)[O-])ccc2N2CCN(C)CC2)cc1` [CBK263017], the viability at 28.5 h, 10 µM was determined as 102%. `O=C(Nc1ccccc1Br)N1CCC2(CC1)OCCO2` [CBK043644]: for the setting “bulk resorufin, single well”, the viability at 28.5 h, 10 µM is 90.7%.

Consider `Nc1ccccc1Sc1ccccn1` [CBK085854], for which the viability at 28.5 h, 10 µM was 103%. Still for that read-out and setting: as for `O=C(O)c1ccc(/C=N/N2CCN(Cc3ccc(Cl)cc3)CC2)cc1` [CBK263561], the figure is 90.5%; as for `CCSc1ncc(Cl)c(C(=O)N(Cc2cccc(Br)c2)C2CCS(=O)(=O)C2)n1` (stereo not drawn) [CBK268969], 90.3%.

For `CCOc1cc(NC2CCN(C(=O)C(C)CC3CCCC3)CC2)ncn1` (stereo not drawn) [CBK306176], the viability at 28.5 h, 10 µM amounted to 85.3%. Still for that read-out and setting: next, `O=C(O)CCc1cccnc1` [CBK175283]: 92.2%; `O=C(c1ccccc1F)N1C[C@H](c2ccsc2)[C@H]2CN(Cc3ccccc3)CC[C@H]21` [CBK285655]: 96.5%; `CCOC(=O)NC(NCc1ccco1)(C(F)(F)F)C(F)(F)F` [CBK057654]: 102%. Regarding `O=C(Nc1cccc(-c2nc3ncccc3o2)c1)c1cccc(OCc2ccccc2)c1` [CBK263126], the viability at 28.5 h, 10 µM was determined as 86.2%.

In the case of `COc1cncc(-c2cc(Nc3cc(OC)c(OC)cc3C)ncn2)c1` [CBK090782], the viability at 28.5 h, 10 µM came to 84.9%. On the same count and under the same terms, as for `CCN(C(=O)Cn1c(=O)cc(C)c2ccccc21)C1CCN(C)CC1` [CBK281871], the figure is 86.8%; as for `CC(C)C(=O)NC(c1ccc(C(C)C)cc1)c1cc([N+](=O)[O-])c2cccnc2c1O` (stereo not drawn) [CBK265303], 103%. As to `COc1ccc([C@]23CN(C)C[C@H]2CCN(C(=O)Nc2cccc(Cl)c2)C3)cc1OC` [CBK075104T], the viability at 28.5 h, 10 µM turned out to be 112%.

In the case of `O=S(=O)(CCc1ccccc1)N1CCCn2nc(-c3ccncc3)cc2C1` [CBK288608], the viability at 28.5 h, 10 µM is 87.3%. For the compound `C=CCn1c(Cc2csc(NC(=O)c3ccc([N+](=O)[O-])c(C)c3)n2)n[nH]c1=S` [CBK295323], the viability at 28.5 h, 10 µM was 87%. Same read-out and setting: next, `Cc1noc(C)c1NC(=O)c1cc2ccccc2[nH]1` [CBK200303]: 95.6%.

For `COc1cccc(/C=C2/SC(=S)NC2=O)c1OCCCOc1ccccc1C` [CBK264442], the viability at 28.5 h, 10 µM was found to be 98.9%. Regarding `O=C(/C=C/c1ccc2c(c1)OCO2)NCCSc1ccccn1` [CBK264012], the viability at 28.5 h, 10 µM was found to be 97.7%. Same read-out and setting: as for `COc1ccc(CCNC(=O)CCCc2cn(C)c3ccccc23)cc1OC` [CBK061740], the figure is 100%; as for `Cc1ccc(S(=O)(=O)N(CC(=O)NCc2ccco2)c2cc(C)cc(C)c2)cc1` [CBK263982], 86.2%. Still for that read-out and setting: as for `COC(=O)C(=O)N1CC[C@H]2NC(=O)N(c3ccc(C(C)C)cc3)C(=O)[C@H]21` [CBK289287], the figure is 105%.

The viability is a read-out of living cells in per cent, often relative to untreated cells.
